Substitutions are numbered along the chain they refer to.
Key:
Experiment in all cases: Fluo-4 calcium assay, HEK293T + Galpha16gust44
Format in all cases: cell-based
[1] = biological target: T1, hTAS2R16 (ssr3-hTAS2R16) (Homo sapiens, UniProt Q9NYV7, I243V)
T1 sequence (Q9NYV7 1-291 I243V): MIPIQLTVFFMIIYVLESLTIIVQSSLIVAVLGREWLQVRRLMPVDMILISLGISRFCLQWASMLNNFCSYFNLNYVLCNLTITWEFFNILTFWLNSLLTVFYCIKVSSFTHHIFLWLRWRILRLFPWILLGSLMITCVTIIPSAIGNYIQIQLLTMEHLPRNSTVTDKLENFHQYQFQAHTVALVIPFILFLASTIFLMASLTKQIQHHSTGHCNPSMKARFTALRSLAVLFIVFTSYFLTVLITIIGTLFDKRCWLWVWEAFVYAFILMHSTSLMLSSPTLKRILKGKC

[2] = biological target: T2, hTAS2R16 (ssr3-hTAS2R16) (Homo sapiens, UniProt Q9NYV7, F240W)
T2 sequence (Q9NYV7 1-291 F240W): T1 sequence (Q9NYV7 1-291 I243V) with F240W, V243I

[3] = biological target: T3, hTAS2R16 (ssr3-hTAS2R16) (Homo sapiens, UniProt Q9NYV7)
T3 sequence (Q9NYV7 1-291): T1 sequence (Q9NYV7 1-291 I243V) with V243I

[4] = biological target: T4, hTAS2R16 (ssr3-hTAS2R16) (Homo sapiens, UniProt Q9NYV7, F93A)
T4 sequence (Q9NYV7 1-291 F93A): T1 sequence (Q9NYV7 1-291 I243V) with F93A, V243I

EC50 [1]: 840 µM | EC50 [2]: 2050 µM | EC50 [3]: 220 µM | EC50 [4]: 11500 µM
SMILES: OCc1ccccc1O[C@@H]1O[C@H](CO)[C@@H](O)[C@H](O)[C@H]1O [salicin]

From article PMC2934701 (The Journal of Biological Chemistry, 2010)
